# Experiment: Effect of temperature (and pH) on the stability of the solution (purity)
# Assay type: physicochemical
# Conditions: 7% solution in water
smiles,measurement,setting,value
CCN(CC)CCOC(=O)COC(=O)Cc1c(C)n(C(=O)c2ccc(Cl)cc2)c2ccc(OC)cc12.Cl [2-(diethylamino)ethyl 1-(4-chlorobenzoyl-5-methoxy-2-methyl-1H-indole-3-acetoxyacetate.HCl],Stability of the solution at a temperature higher than 40° C. and a pH lower than 3 or greater than 6,,not stable
CCN(CC)CCOC(=O)C(C)c1ccc2oc(-c3ccc(Cl)cc3)nc2c1.Cl (stereo not drawn),Purity(%) at day 0,"pH 1.0, day 0",98.1 ± 0.3%
same,Purity(%) at day 21 (5° C.),"pH 1.0, day 21, 5° C.",92.9 ± 0.3%
same,Purity(%) at day 21 (25° C.),"pH 1.0, day 21, 25° C.",69.2 ± 0.3%
same,Purity(%) at day 21 (40° C.),"pH 1.0, day 21, 40° C.",11.3 ± 0.3%
same,Purity (%) at day 21 (60° C.),"pH 1.0, day 21, 60° C.",0%
same,Purity(%) at day 0,"pH 2.0, day 0",98.2 ± 0.3%
same,Purity(%) at day 21 (5° C.),"pH 2.0, day 21, 5° C.",96.1 ± 0.3%
same,Purity(%) at day 21 (25° C.),"pH 2.0, day 21, 25° C.",83.0 ± 0.3%
same,Purity(%) at day 21 (40° C.),"pH 2.0, day 21, 40° C.",20.5 ± 0.3%
same,Purity (%) at day 21 (60° C.),"pH 2.0, day 21, 60° C.",0%
same,Purity(%) at day 0,"pH 3.0, day 0",98.3 ± 0.2%
same,Purity(%) at day 21 (5° C.),"pH 3.0, day 21, 5° C.",97.5 ± 0.2%
same,Purity(%) at day 21 (25° C.),"pH 3.0, day 21, 25° C.",94.0 ± 0.3%
same,Purity(%) at day 21 (40° C.),"pH 3.0, day 21, 40° C.",45.3 ± 0.2%
same,Purity (%) at day 21 (60° C.),"pH 3.0, day 21, 60° C.",0%
same,Purity(%) at day 0,"pH 3.7, day 0",98.5 ± 0.1%
same,Purity(%) at day 21 (5° C.),"pH 3.7, day 21, 5° C.",97.6 ± 0.2%
same,Purity(%) at day 21 (25° C.),"pH 3.7, day 21, 25° C.",96.6 ± 0.2%
same,Purity(%) at day 21 (40° C.),"pH 3.7, day 21, 40° C.",51.9 ± 0.2%
same,Purity (%) at day 21 (60° C.),"pH 3.7, day 21, 60° C.",11.3 ± 0.3%
same,Purity(%) at day 0,"pH 4.0, day 0",98.6 ± 0.1%
same,Purity(%) at day 21 (5° C.),"pH 4.0, day 21, 5° C.",98.0 ± 0.1%
same,Purity(%) at day 21 (25° C.),"pH 4.0, day 21, 25° C.",96.7 ± 0.2%
same,Purity(%) at day 21 (40° C.),"pH 4.0, day 21, 40° C.",62.7 ± 0.2%
same,Purity (%) at day 21 (60° C.),"pH 4.0, day 21, 60° C.",18.6 ± 0.2%
same,Purity(%) at day 0,"pH 4.3, day 0",98.6 ± 0.1%
same,Purity(%) at day 21 (5° C.),"pH 4.3, day 21, 5° C.",98.0 ± 0.1%
same,Purity(%) at day 21 (25° C.),"pH 4.3, day 21, 25° C.",96.7 ± 0.1%
same,Purity(%) at day 21 (40° C.),"pH 4.3, day 21, 40° C.",63.1 ± 0.2%
same,Purity (%) at day 21 (60° C.),"pH 4.3, day 21, 60° C.",17.7 ± 0.2%
same,Purity(%) at day 0,"pH 4.6, day 0",98.6 ± 0.1%
same,Purity(%) at day 21 (5° C.),"pH 4.6, day 21, 5° C.",98.0 ± 0.1%
same,Purity(%) at day 21 (25° C.),"pH 4.6, day 21, 25° C.",96.6 ± 0.1%
same,Purity(%) at day 21 (40° C.),"pH 4.6, day 21, 40° C.",50.3 ± 0.2%
same,Purity (%) at day 21 (60° C.),"pH 4.6, day 21, 60° C.",12.3 ± 0.2%
same,Purity(%) at day 0,"pH 5.0, day 0",98.4 ± 0.2%
same,Purity(%) at day 21 (5° C.),"pH 5.0, day 21, 5° C.",97.1 ± 0.2%
same,Purity(%) at day 21 (25° C.),"pH 5.0, day 21, 25° C.",92.9 ± 0.2%
same,Purity(%) at day 21 (40° C.),"pH 5.0, day 21, 40° C.",39.8 ± 0.2%
same,Purity (%) at day 21 (60° C.),"pH 5.0, day 21, 60° C.",2.9 ± 0.2%
same,Purity(%) at day 0,"pH 6.0, day 0",98.2 ± 0.2%
same,Purity(%) at day 21 (5° C.),"pH 6.0, day 21, 5° C.",94.8 ± 0.2%
same,Purity(%) at day 21 (25° C.),"pH 6.0, day 21, 25° C.",86.8 ± 0.2%
same,Purity(%) at day 21 (40° C.),"pH 6.0, day 21, 40° C.",20.6 ± 0.3%
same,Purity (%) at day 21 (60° C.),"pH 6.0, day 21, 60° C.",0%
same,Purity(%) at day 0,"pH 7.0, day 0",98.0 ± 0.2%
same,Purity(%) at day 21 (5° C.),"pH 7.0, day 21, 5° C.",89.1 ± 0.3%
same,Purity(%) at day 21 (25° C.),"pH 7.0, day 21, 25° C.",60.9 ± 0.2%
same,Purity(%) at day 21 (40° C.),"pH 7.0, day 21, 40° C.",7.4 ± 0.3%
same,Purity (%) at day 21 (60° C.),"pH 7.0, day 21, 60° C.",0%
same,Purity(%) at day 0,"pH 8.0, day 0",97.7 ± 0.3%
same,Purity(%) at day 21 (5° C.),"pH 8.0, day 21, 5° C.",78.7 ± 0.3%
same,Purity(%) at day 21 (25° C.),"pH 8.0, day 21, 25° C.",47.9 ± 0.3%
same,Purity(%) at day 21 (40° C.),"pH 8.0, day 21, 40° C.",0%
same,Purity (%) at day 21 (60° C.),"pH 8.0, day 21, 60° C.",0%
CCN(CC)CCOC(=O)CCc1ccc2cc(OC)ccc2c1.Cl,Purity(%) at day 0,"pH 1.0, day 0",98.0 ± 0.3%
same,Purity(%) at day 21 (5° C.),"pH 1.0, day 21, 5° C.",92.7 ± 0.3%
same,Purity(%) at day 21 (25° C.),"pH 1.0, day 21, 25° C.",69.1 ± 0.3%
same,Purity(%) at day 21 (40° C.),"pH 1.0, day 21, 40° C.",16.3 ± 0.3%
same,Purity (%) at day 21 (60° C.),"pH 1.0, day 21, 60° C.",0%
same,Purity(%) at day 0,"pH 2.0, day 0",98.1 ± 0.3%
same,Purity(%) at day 21 (5° C.),"pH 2.0, day 21, 5° C.",95.9 ± 0.3%
same,Purity(%) at day 21 (25° C.),"pH 2.0, day 21, 25° C.",83.5 ± 0.3%
same,Purity(%) at day 21 (40° C.),"pH 2.0, day 21, 40° C.",27.5 ± 0.3%
same,Purity (%) at day 21 (60° C.),"pH 2.0, day 21, 60° C.",0%
same,Purity(%) at day 0,"pH 3.0, day 0",98.3 ± 0.2%
same,Purity(%) at day 21 (5° C.),"pH 3.0, day 21, 5° C.",97.4 ± 0.3%
same,Purity(%) at day 21 (25° C.),"pH 3.0, day 21, 25° C.",94.6 ± 0.2%
same,Purity(%) at day 21 (40° C.),"pH 3.0, day 21, 40° C.",49.3 ± 0.2%
same,Purity (%) at day 21 (60° C.),"pH 3.0, day 21, 60° C.",0%
same,Purity(%) at day 0,"pH 3.7, day 0",98.4 ± 0.2%
same,Purity(%) at day 21 (5° C.),"pH 3.7, day 21, 5° C.",97.7 ± 0.2%
same,Purity(%) at day 21 (25° C.),"pH 3.7, day 21, 25° C.",97.3 ± 0.2%
same,Purity(%) at day 21 (40° C.),"pH 3.7, day 21, 40° C.",59.9 ± 0.2%
same,Purity (%) at day 21 (60° C.),"pH 3.7, day 21, 60° C.",19.3 ± 0.3%
same,Purity(%) at day 0,"pH 4.0, day 0",98.5 ± 0.1%
same,Purity(%) at day 21 (5° C.),"pH 4.0, day 21, 5° C.",98.2 ± 0.2%
same,Purity(%) at day 21 (25° C.),"pH 4.0, day 21, 25° C.",97.5 ± 0.2%
same,Purity(%) at day 21 (40° C.),"pH 4.0, day 21, 40° C.",70.7 ± 0.2%
same,Purity (%) at day 21 (60° C.),"pH 4.0, day 21, 60° C.",23.6 ± 0.3%
same,Purity(%) at day 0,"pH 4.3, day 0",98.5 ± 0.2%
same,Purity(%) at day 21 (5° C.),"pH 4.3, day 21, 5° C.",98.2 ± 0.2%
same,Purity(%) at day 21 (25° C.),"pH 4.3, day 21, 25° C.",97.6 ± 0.1%
same,Purity(%) at day 21 (40° C.),"pH 4.3, day 21, 40° C.",70.1 ± 0.2%
same,Purity (%) at day 21 (60° C.),"pH 4.3, day 21, 60° C.",27.7 ± 0.2%
same,Purity(%) at day 0,"pH 4.6, day 0",98.5 ± 0.1%
same,Purity(%) at day 21 (5° C.),"pH 4.6, day 21, 5° C.",98.2 ± 0.2%
same,Purity(%) at day 21 (25° C.),"pH 4.6, day 21, 25° C.",97.5 ± 0.2%
same,Purity(%) at day 21 (40° C.),"pH 4.6, day 21, 40° C.",59.3 ± 0.2%
same,Purity (%) at day 21 (60° C.),"pH 4.6, day 21, 60° C.",22.3 ± 0.2%
same,Purity(%) at day 0,"pH 5.0, day 0",98.4 ± 0.2%
same,Purity(%) at day 21 (5° C.),"pH 5.0, day 21, 5° C.",97.5 ± 0.2%
same,Purity(%) at day 21 (25° C.),"pH 5.0, day 21, 25° C.",94.9 ± 0.2%
same,Purity(%) at day 21 (40° C.),"pH 5.0, day 21, 40° C.",45.8 ± 0.3%
same,Purity (%) at day 21 (60° C.),"pH 5.0, day 21, 60° C.",5.9 ± 0.2%
same,Purity(%) at day 0,"pH 6.0, day 0",98.2 ± 0.2%
same,Purity(%) at day 21 (5° C.),"pH 6.0, day 21, 5° C.",95.3 ± 0.2%
same,Purity(%) at day 21 (25° C.),"pH 6.0, day 21, 25° C.",88.8 ± 0.2%
same,Purity(%) at day 21 (40° C.),"pH 6.0, day 21, 40° C.",28.6 ± 0.2%
same,Purity (%) at day 21 (60° C.),"pH 6.0, day 21, 60° C.",0%
same,Purity(%) at day 0,"pH 7.0, day 0",98.0 ± 0.3%
same,Purity(%) at day 21 (5° C.),"pH 7.0, day 21, 5° C.",90.2 ± 0.3%
same,Purity(%) at day 21 (25° C.),"pH 7.0, day 21, 25° C.",60.9 ± 0.2%
same,Purity(%) at day 21 (40° C.),"pH 7.0, day 21, 40° C.",17.4 ± 0.3%
same,Purity (%) at day 21 (60° C.),"pH 7.0, day 21, 60° C.",0%
same,Purity(%) at day 0,"pH 8.0, day 0",97.7 ± 0.3%
same,Purity(%) at day 21 (5° C.),"pH 8.0, day 21, 5° C.",79.7 ± 0.3%
same,Purity(%) at day 21 (25° C.),"pH 8.0, day 21, 25° C.",49.9 ± 0.3%
same,Purity(%) at day 21 (40° C.),"pH 8.0, day 21, 40° C.",0%
same,Purity (%) at day 21 (60° C.),"pH 8.0, day 21, 60° C.",0%

# Source: patent US20230157952A1, “METHOD FOR IMPROVING THE STABILITY OF A PHARMACEUTICAL COMPOSITION COMPRISING A HIGH PENETRATION DRUG, AND THE PHARMACEUTICAL COMPOSITION OBTAINED THEREFROM” (Techfields Inc., priority 2020, published 2023)
